Results as given in patent publication US20230265055A1, “STAT INIHIBITORY COMPOUNDS AND COMPOSITIONS” (JANPIX LIMITED, priority 2020, published 2023).

How the values were obtained:
[1] = system: MV4-11 cells; assay: MV4-11 Cell Cytotoxicity Assay; type: cell-based; settings: Homo sapiens, 72 h incubation, CellTiter-Blue, read-out: IC50-MV-4-11 (NS)
Method: MV4-11 cells were grown in Iscove's Modified Dulbecco's Medium (IMDM) supplemented with 10% fetal bovine serum (FBS). 10,000 cells were plated per well in 96-well flat-bottom sterile culture plates with low-evaporation lids. After 24 h, inhibitors and a vehicle control (0.5% DMSO) were added and the cells were incubated for 72 h at 37° C. in 5% CO2. Inhibitors were examined in triplicate at a maximal concentration of 50 μM, followed by 1:2 dilutions in subsequent wells (25, 12.5, 6.25, 3.13, 1.56, 0.78, 0.39, 0.20 and 0.098 μM). After 72 h, the wells were treated with CellTiter-Blue® (20 μL/well), and the plates were incubated using standard cell culture conditions for 1 hour. Fluorescence was measured at 560/590 nm.

[2] = system: normal human fibroblast (NHF) cells; assay: NHF Cell Cytotoxicity Assay; type: cell-based; settings: 72 hours, CellTiter-Blue, read-out: IC50—Pooled NHF
Method: Cell viability was examined a following treatment at various concentrations of inhibitor (0.097656-50 μM) using a cell Titer-Blue cell viability assay. 1×10^4 normal human fibroblast cells per well were plated in 96-well assay plates in culture medium. All cells were grown in DMEM, IMDM and RPMI-1640 were supplemented with 10% FBS. After 24 hours, test compounds and vehicle controls were added to appropriate wells so the final volume was 100 μl in each well. The cells were cultured for the desired test exposure period (72 hours) at 37° C. and 5% CO2. The assay plates were removed from 37° C. incubator and 20 μL/well of CellTiter-Blue® Reagent was added. […] For each sample well, value was normalized between the DMSO control and the highest concentration in case of plateau and converted into a percentage. In the absence of plateau, minimum lecture is obtained from a different sample within the same experiment. For each concentration, the four replicates are averaged, and standard deviation calculated. Data was fitted to a log(inhibitor) vs response curve with variable slope model using Microsoft Excel, obtaining IC50 and Hill slope variables.
A person skilled in the art would appreciate that a higher IC50 value in this NHF assay can indicate lower off-target effects.

| Structure (SMILES) | IC50 [1] | IC50 [2] |
| --- | --- | --- |
| CCOc1cc(C(=O)O)ccc1NC(=O)CN(Cc1ccccc1C#N)S(=O)(=O)c1cc(F)c(F)c(F)c1F [Compound 48, 4-(2-((N-(2-cyanobenzyl)-2,3,4,5-tetrafluorophenyl)sulfonamido)acetamido)-3-ethoxy benzoic acid] | 1.2 to 6 µM | – |
| CCOc1cc(C(=O)O)ccc1N(Cc1cc(C2CC2)cc(C2CC2)c1)C(=O)CN(Cc1ccccc1F)S(=O)(=O)c1cc(F)c(F)c(F)c1F [Compound 11, 4-[(3,5-dicyclopropylphenyl)methyl-[2-[(2-fluorophenyl)methyl-(2,3,4,5-tetrafluorophenyl)sulfonyl-amino]acetyl]amino]-3-ethoxy-benzoic acid] | 1.2 to 6 µM | – |
| CCOc1cc(C(=O)O)ccc1N(Cc1cc(C2CC2)cc(C2CC2)c1)C(=O)CN(Cc1ccccc1C(F)(F)F)S(=O)(=O)c1c(Br)cc(F)c(F)c1F [Compound 21, 4-[[2-[(6-bromo-2,3,4-trifluoro-phenyl)sulfonyl-[[2-(trifluoromethyl)phenyl]methyl]amino]acetyl]-[(3,5-dicyclopropylphenyl)methyl]amino]-3-ethoxy-benzoic acid] | 1.2 to 6 µM | ≥ 24 µM |
| CCOc1cc(C(=O)O)ccc1N(Cc1cc(C2CC2)cc(C2CC2)c1)C(=O)CN(Cc1ccccc1C(F)(F)F)S(=O)(=O)c1c(F)cc(F)c(F)c1F [Compound 14, 4-[(3,5-dicyclopropylphenyl)methyl-[2-[(2,3,4,6-tetrafluorophenyl)sulfonyl-[[2-(trifluoromethyl)phenyl]methyl]amino]acetyl]amino]-3-ethoxy-benzoic acid] | 1.2 to 6 µM | – |
| CCOc1cc(C(=O)O)ccc1N(Cc1cc(C2CC2)cc(N2CCCC2)c1)C(=O)CN(Cc1ccccc1C#N)S(=O)(=O)c1c(F)cc(F)c(F)c1F [Compound 23, 4-[[2-[(2-cyanophenyl)methyl-(2,3,4,6-tetrafluorophenyl)sulfonyl-amino]acetyl]-[(3-cyclopropyl-5-pyrrolidin-1-yl-phenyl)methyl]amino]-3-ethoxy-benzoic acid] | 1.2 to 6 µM | – |
| CCOc1cc(C(=O)O)c(F)cc1N(Cc1cc(C2CC2)cc(C2CC2)c1)C(=O)CN(Cc1ccccc1C#N)S(=O)(=O)c1cc(F)c(F)c(F)c1F [Compound 18, 4-[[2-[(2-cyanophenyl)methyl-(2,3,4,5-tetrafluorophenyl)sulfonyl-amino]acetyl]-[(3,5-dicyclopropylphenyl)methyl]amino]-5-ethoxy-2-fluoro-benzoic acid] | 0.4 to 1.2 µM | ≥ 24 µM |
| CCOc1cc(C(=O)O)ccc1N(Cc1cc(C2CC2)cc(C(C)(C)C)c1)C(=O)CN(Cc1ccccc1C#N)S(=O)(=O)c1c(F)cc(F)c(F)c1F [Compound 25, 4-[(3-tert-butyl-5-cyclopropyl-phenyl)methyl-[2-[(2-cyanophenyl)methyl-(2,3,4,6-tetrafluorophenyl)sulfonyl-amino]acetyl]amino]-3-ethoxy-benzoic acid] | 1.2 to 6 µM | – |
| O=C(O)c1ccc(N(Cc2cc(C3CC3)cc(C3CC3)c2)C(=O)CN(Cc2ccccc2Cl)S(=O)(=O)c2c(F)c(F)c(F)c(F)c2Cl)cc1O [Compound 76, 4-(2-((2-chloro-N-(2-chlorobenzyl)-3,4,5,6-tetrafluorophenyl)sulfonamido)-N-(3,5-dicyclopropylbenzyl)acetamido)-2-hydroxybenzoic acid] | 1.2 to 6 µM | ≥ 24 µM |
| COc1cc(C(=O)O)ccc1N(Cc1cc(C2CC2)cc(C(C)(C)C)c1)C(=O)CN(Cc1cnccc1C(F)(F)F)S(=O)(=O)c1c(F)c(F)cc(F)c1F [Compound 46, 4-(N-(3-(tert-butyl)-5-cyclopropylbenzyl)-2-((2,3,5,6-tetrafluoro-N-((4-(trifluoromethyl)pyridin-3-yl)methyl)phenyl)sulfonamido)acetamido)-3-methoxy benzoic acid] | > 6 µM | – |
| CCOc1cc(C(=O)O)ccc1N(Cc1cccc(OC(C)C)c1)C(=O)CN(Cc1ccccc1C#N)S(=O)(=O)c1cc(F)c(F)c(F)c1F [Compound 33, 4-[[2-[(2-cyanophenyl)methyl-(2,3,4,5-tetrafluorophenyl)sulfonyl-amino]acetyl]-[(3-isopropoxyphenyl)methyl]amino]-3-ethoxy-benzoic acid] | 1.2 to 6 µM | – |
| CCOc1cc(C(=O)O)ccc1N(Cc1cc(C2CC2)cc(N2CCCC2)c1)C(=O)CN(Cc1ccccc1C#N)S(=O)(=O)c1c(Br)cc(F)c(F)c1F [Compound 36, 4-[[2-[(6-bromo-2,3,4-trifluoro-phenyl)sulfonyl-[(2-cyanophenyl)methyl]amino]acetyl]-[(3-cyclopropyl-5-pyrrolidin-1-yl-phenyl)methyl]amino]-3-ethoxy-benzoic acid] | 1.2 to 6 µM | ≥ 24 µM |
| CCOc1cc(C(=O)O)c(F)cc1N(Cc1cc(C2CC2)cc(C2CC2)c1)C(=O)CN(Cc1ccccc1C#N)S(=O)(=O)c1c(F)cc(F)c(F)c1F [Compound 19, 4-[[2-[(2-cyanophenyl)methyl-(2,3,4,6-tetrafluorophenyl)sulfonyl-amino]acetyl]-[(3,5-dicyclopropylphenyl)methyl]amino]-5-ethoxy-2-fluoro-benzoic acid] | 1.2 to 6 µM | – |
| CCOc1cc(C(=O)O)ccc1N(Cc1cc(C2CC2)cc(C2CC2)c1)C(=O)CN(Cc1ccc(F)cc1Cl)S(=O)(=O)c1c(F)cc(F)c(F)c1F [Compound 15, 4-[[2-[(2-chloro-4-fluoro-phenyl)methyl-(2,3,4,6-tetrafluorophenyl)sulfonyl-amino]acetyl]-[(3,5-dicyclopropylphenyl)methyl]amino]-3-ethoxy-benzoic acid] | 1.2 to 6 µM | – |
| CCOc1cc(C(=O)O)ccc1N(Cc1cc(C2CC2)cc(N2CCCC2)c1)C(=O)CN(Cc1ccccc1C#N)S(=O)(=O)c1cc(F)c(F)c(F)c1F [Compound 22, 4-[[2-[(2-cyanophenyl)methyl-(2,3,4,5-tetrafluorophenyl)sulfonyl-amino]acetyl]-[(3-cyclopropyl-5-pyrrolidin-1-yl-phenyl)methyl]amino]-3-ethoxy-benzoic acid] | 0.4 to 1.2 µM | – |
| CCOc1cc(C(=O)O)ccc1N(Cc1cc(C2CC2)cc(C2CC2)c1)C(=O)CN(Cc1c(F)cc(F)cc1F)S(=O)(=O)c1cc(F)c(F)c(F)c1F [Compound 12, 4-[(3,5-dicyclopropylphenyl)methyl-[2-[(2,3,4,5-tetrafluorophenyl)sulfonyl-[(2,4,6-trifluorophenyl)methyl]amino]acetyl]amino]-3-ethoxy-benzoic acid] | 0.4 to 1.2 µM | – |
| O=C(O)c1ccc(N(Cc2cc(C3CC3)cc(C3CC3)c2)C(=O)CN(Cc2ccccc2Cl)S(=O)(=O)c2c(F)c(F)c(F)c(F)c2Cl)c(O)c1 [Compound 73, 4-(2-((2-chloro-N-(2-chlorobenzyl)-3,4,5,6-tetrafluorophenyl)sulfonamido)-N-(3,5-dicyclopropylbenzyl)acetamido)-3-hydroxybenzoic acid] | 0.4 to 1.2 µM | ≥ 24 µM |
| CCOc1cc(C(=O)O)ccc1N(Cc1cccc(N2CCCC2)c1)C(=O)CN(Cc1ccccc1C#N)S(=O)(=O)c1cc(F)c(F)c(F)c1F [Compound 26, 4-[[2-[(2-cyanophenyl)methyl-(2,3,4,5-tetrafluorophenyl)sulfonyl-amino]acetyl]-[(3-pyrrolidin-1-ylphenyl)methyl]amino]-3-ethoxy-benzoic acid] | 0.4 to 1.2 µM | – |
| CCOc1cc(C(=O)O)ccc1N(Cc1cc(C2CC2)cc(C2CC2)c1)C(=O)CNS(=O)(=O)c1cc(F)c(F)c(F)c1F [Compound 47, 4-(N-(3,5-dicyclopropylbenzyl)-2-((2,3,4,5-tetrafluorophenyl)sulfonamido)acetamido)-3-ethoxy benzoic acid] | > 6 µM | – |
| CCOc1cc(C(=O)O)ccc1N(Cc1cc(OC(C)C)cc(C2CC2)c1)C(=O)CN(Cc1ccccc1C#N)S(=O)(=O)c1cc(F)c(F)c(F)c1F [Compound 32, 4-[[2-[(2-cyanophenyl)methyl-(2,3,4,5-tetrafluorophenyl)sulfonyl-amino]acetyl]-[(3-cyclopropyl-5-isopropoxy-phenyl)methyl]amino]-3-ethoxy-benzoic acid] | 1.2 to 6 µM | – |
| CCOc1cc(C(=O)O)ccc1N(Cc1cc(C2CC2)cc(C2CC2)c1)C(=O)CN(Cc1cccc(F)c1F)S(=O)(=O)c1cc(F)c(F)c(F)c1F [Compound 9, 4-[(3,5-dicyclopropylphenyl)methyl-[2-[(2,3-difluorophenyl)methyl-(2,3,4,5-tetrafluorophenyl)sulfonyl-amino]acetyl]amino]-3-ethoxy-benzoic acid] | 1.2 to 6 µM | – |
